Experimental data as given in EP0497921B1, “METHOD FOR INHIBITING ENZYMATIC SYNTHESIS OF NUCLEIC ACIDS USING ISOPSORALENS” (ISAACS, Stephen T., priority 1989, dated 1991).
Values after ≈ are worked out from the molar mass of the structure shown. Read-outs that look alike come from different tables or passages of the source.

How the values were obtained:
[1] = test system: DNA polymerase I from E. coli. B; conditions: cited from earlier work; for template activity lost by modified DNA: C.M. Ou et al., covalently modified DNA
Taq I DNA polymerase = test: Primer extension on site-specific 71-mer monoadduct template; format: biochemical, Thermus aquaticus; conditions: 55°C; 0.5, 1.0, 5.0 mins; PAGE, autoradiography
Method: In this experiment, monoadducted 71-mers (as well as unmodified 71-mers) were used in template-dependent enzymatic extension. AMIP, AMDMIP, and MIP 71-mer monoadducts were made as in Example 17. Extension was carried out as in Example 18 except that in this experiment, Taq I DNA polymerase, a thermostable DNA polymerase isolated from Thermus aquaticus (Stratagene, Inc., La Jolla, CA) was assessed for its ability to read past isopsoralens.
The reaction mixture was in 80 µl total volume and comprised 1 x Taq buffer, 200 µM each of dNTP's, 0.05 units of Taq per µl of reaction volume; 1 x 10^-9 M in 71-mer MA; 1 x 10^-8 M in ^32P-labelled SK-39. Each reaction was set up with everything except Taq polymerase. The samples were initially heated to 95°C for 5 mins, then incubated at 55°C for 3 mins. The extension reaction was initiated by addition of Taq polymerase. At the indicated time points (0.5, 1.0, 5.0 mins), 20 µl of the reaction mix was removed to a tube containing 1 µl of 0.5 M EDTA to stop the reaction. All products were analyzed on a 20% polyacrylamide, 7 M urea gel followed by autoradiography.
This experiment investigated whether blocking of Taq polymerase by monoadducts is complete or whether monoadducts can be bypassed by the enzyme. In order to view the process of bypass synthesis, it is necessary to cycle the extension reaction of the primer with the 71-mer templates. Cycling in this case consists of mixing the primer with the 71-mer template, adding Taq polymerase and appropriate reagents, extending, heating to induce strand separation, reannealing of the primer to the 71-mer template, extending again, and subsequent stand separation. This process can be repeated as necessary. During this process, only the complement of the 71-mer template is being synthesized. It is accumulating in a linear fashion with the number of thermal cycles (in contrast to PCR where both strands are being synthesized and accumulate geometrically).
The templates and reaction conditions were as in Example 19 above except that three samples were used for each monoadduct and each sample was tested under different conditions: • Samples (1): one sample for each monoadduct was used to carry out extension at 55°C as in Example 43; • Samples (2): one sample for each monoadduct was used to carry out extension by the following series of steps: denaturing at 95°C; incubating for 30 seconds at 55°C; adding Taq polymerase for 3 minutes at 550C; cooling the reaction for 1 minute at 7°C; stopping the reaction with EDTA for one minute at 95°C: • Samples (3): one sample for each monoadduct was used to carry out extension by repeating the following series of steps nine times: denaturing at 95°C; incubating for 30 seconds at 55°C; adding Taq polymerase for 3 minutes at 55°C; cooling the reaction for 1 minute at 7°C. At the end, the reaction is stopped with EDTA for one minute at 95°C.
To investigate this question further, a new 5-MIP monoadducted 71-mer was prepared by repurification of the HPLC purified 5-MIP monoadducted 15-mer by PAGE. In this way, more of the non-monoadducted 15-mer was removed prior to ligation. The purified 71-mer was then used as template in an extension experiment as described in Example 20. After 10 cycles, there was still evidence of extension product (Figure 34).
Monoadducted 71-mer was constructed as described, but for HMT. Extension was carried out and analyzed as before on PAGE. […] Full length 71-mer is not made and a shorter strand corresponding to the position of the HMT adduct was made.

Taq polymerase = Taq polymerase (Thermus aquaticus, UniProt P19821); test: Primer extension on 71-mer after random addition of compound or addition of photoproduct; format: biochemical
Source text: In this experiment, the ability of AMIP, AMDMIP and MIP to block replication of 71-mer is investigated by randomly adding each compound to the 71-mer. of course, addition may only be random in the sense that one or more adducts may be formed with any one strand of nucleic acid. The actual placement of the isopsoralen may be governed by preferential binding at particular sites (e.g. A:T). In addition to blockage by random adducts, photoproducts of the various isopsoralens may be providing an inhibitory effect. No attempt to separate the effects of photoproduct from the effects of covalent adducts on the 71-mer template was made in this series of experiments.
In these experiments, the 71-mer template (10^-9 M) was primed with ^32P-SK-39 (10^-8) and extended with Taq polymerase in a total volume of 20 µl. The dNTP concentration was 200 µM. In the control samples, the 71-mer, the primer, and the dNTPs were mixed in Taq buffer in a volume of 18 µl. These samples were initially denatured at 95°C for 5 minutes, followed by equilibration at 550C for 3 minutes. Taq enzyme was then added (0.5 units) and the extension reaction was carried out for 5 minutes at 55°C. The reaction was stopped by making the solution 10 mM in EDTA. In another set of samples, the 71-mer in 10 µl was mixed with either AMIP (200 µg/ml), AMDMIP (200 µg/ml), or MIP (60 µg/ml). Half of these samples were irradiated for 15 minutes on the CE-I device at 25°C. The other half was kept in the dark as controls. These samples were then mixed with the primer and dNTPs as before, and were subjected to the same thermal profile and extension reactions as the samples that were described earlier. The results were examined by PAGE. The extended product bands were identified by autoradiography, excised and counted (data not shown).
In this experiment, the ability of two different Phenylazide derivatives (see Table 1), photobiotin (Vector Labs) and monoazide ethidium chloride, to block replication of 71-mer was investigated by randomly adding each compound to the 71-mer. Again, addition may only be random in the sense that one or more adducts may be formed with any one strand of nucleic acid. The actual placement of these compounds may be governed by preferential binding at particular sites (e.g. A:T). In addition to blockage by random adducts, there may be inhibition by photoproducts. As in Example 23, no attempt was made to separate the impact of photoproducts from that of covalent binding of photoreactive compound on the 71-mer.
The two compounds, photobiotin and monoazide ethidium chloride, have different spectral characteristics. To activate these compounds, two different wavelength regions were selected using a single light source (General Electric Sunlamp, Model RSM, 275 watt). The light source was positioned 10 cm above uncapped Eppendorph tubes which contained samples to be irradiated. The samples were kept on ice during irradiation. A pyrex dish was placed between the lamp and the samples.
For samples containing photobiotin, 2.5 cm of water was added to the pyrex dish to help remove some of the infrared radiation. The samples were irradiated for 15 minutes.
For samples containing monoazide ethidium chloride, wavelengths less than 400 nm were filtered out by using 2.5 cm of an aqueous solution of 2.9 M NaNO2. Removal of short wavelengths (i.e. wavelengths shorter than 400 nm) is necessary for the use of monoazide ethidium chloride. Irradiation of this compound with shorter wavelengths results in conversion to non-active forms (data not shown). Wavelengths below 400 nm are therefore undesirable for use with this compound.
In this experiment, the 71-mer template (2 x 10^-9 M) in 10 µl was mixed with either no photoreactive compound, photobiotin (6 x 10^-6 M), or monoazide ethidium (1.4 x 10^-3 M). Half of each of these samples were irradiated on ice for 15 minutes with wavelengths appropriate for each specific photoreactive compound. […]

HIV 115-mer = test: PCR with pre-irradiated photobiotin or monoazide ethidium chloride; format: biochemical
Method: In this experiment, photobiotin and monoazide ethidium chloride were tested as PCR sterilization reagents. The temporal steps were performed to examine photoproduct effects (if any). Solutions of photobiotin and monoazide ethidium chloride were made up in 1 x Taq buffer. Concentrations of photobiotin ranged form 7 x 10^-4 M to […]: concentrations of the monoazide ethidium chloride ranged from 3 x 10^-9 M to 3 x 10^-10M. […] Each compound solution was divided into two parts: One part was irradiated under a GE sunlamp through a pyrex filter (300nm cut-off); the other half was irradiated under a GE sunlamp through a 2.9 M NaNO2 liquid filter (400 nm cut-off). Irradiations were carried out on ice for 15 minutes. After irradiation, aliquots of each tube were carried over into tubes containing PCR reagents and target (HIV 115-mer); PCR was then carried out for 30 cycles in the presence of α-^32P-dCTP. After amplification aliquots were analyzed on 12% acrylamide/8M urea gels.

[2] = Solubility of photoreactive compounds in 1 X TE (optical density of filtrate); format: physicochemical; conditions: nd = not detectable (solubility was less than 1 µg/ml)
Method: The solubilities of AMIP, AMDMIP, DMIP, MIP and isopsoralen (IP) were determined experimentally according to the scheme set forth in Figure 5. To perform the solubility measurement, it was first necessary to establish known optical densities for a 1 µg/ml solution of each compound. These were determined by preparing either ethanolic or aqueous stocks of each compound at known concentrations in 1 x TE, then measuring the optical density of each solution. From this information, the absorption of a 1 µg/ml solution was computed. Alternatively, the extinction coefficient may be thus determined and used in the same fashion. In this manner, the following absorption data was collected:
Following this step, undissolved compound was removed by filtration using a 0.2 u nylon-66 syringe filter (Arco LC13; Gelman). The concentration of the remaining soluble compound was then determined by measuring the optical density of the filtrate and computing the solubility from the known optical density of a 1 µg/ml solution of that compound. The solubility of the compounds was thus determined to be as follows: […]

[3] = water; cited from earlier work
human placental DNA = test: PCR amplification with unirradiated AMDMIP and DMSO co-solvent; format: biochemical; conditions: no AMDMIP, average of duplicates, 139,000 at 0% DMSO
Method: In this example, the effect of DMSO on PCR amplification in the presence of high concentrations of sterilizing compound (AMDMIP) was investigated. Samples were prepared for PCR which contained 1 µg of human placental DNA either with or without (unirradiated) AMDMIP (200 µg/ml). The samples were amplified 30 cycles under standard PCR conditions in the presence of 0%, 1%, 5% or 10% DMSO. The reaction mix contained α-^32P-dCTP. Following amplification, the samples were analyzed by PAGE (data not shown).

[4] = test system: Hind-III restriction fragments of lambda DNA; test: Photobinding of BIODMIP to lambda DNA fragments; format: binding; conditions: 100 µg/ml plus 50 µg additional; two 30 minute irradiations at room temperature with the PTI device
Method: BIODMIP (100 µg/ml) was irradiated for 30 minutes at room temperature with the PTI device in 500 µl of 1 x TE buffer with 2 µg of Hind-III restriction fragments of lambda DNA. After the first irradiation, the mixture was transferred to a new tube containing 50 µg additional BIODMIP and this was incubated at 37°C for one hour to dissolve the compound. This was followed by a second 30 minute irradiation at room temperature with the PTI device. It was observed that, under these conditions BIODMIP added to the DNA at a ratio of 1 covalently bound BIODMIP per 20 base pairs.

Taq polymerase, sequence (P19821 whole entry): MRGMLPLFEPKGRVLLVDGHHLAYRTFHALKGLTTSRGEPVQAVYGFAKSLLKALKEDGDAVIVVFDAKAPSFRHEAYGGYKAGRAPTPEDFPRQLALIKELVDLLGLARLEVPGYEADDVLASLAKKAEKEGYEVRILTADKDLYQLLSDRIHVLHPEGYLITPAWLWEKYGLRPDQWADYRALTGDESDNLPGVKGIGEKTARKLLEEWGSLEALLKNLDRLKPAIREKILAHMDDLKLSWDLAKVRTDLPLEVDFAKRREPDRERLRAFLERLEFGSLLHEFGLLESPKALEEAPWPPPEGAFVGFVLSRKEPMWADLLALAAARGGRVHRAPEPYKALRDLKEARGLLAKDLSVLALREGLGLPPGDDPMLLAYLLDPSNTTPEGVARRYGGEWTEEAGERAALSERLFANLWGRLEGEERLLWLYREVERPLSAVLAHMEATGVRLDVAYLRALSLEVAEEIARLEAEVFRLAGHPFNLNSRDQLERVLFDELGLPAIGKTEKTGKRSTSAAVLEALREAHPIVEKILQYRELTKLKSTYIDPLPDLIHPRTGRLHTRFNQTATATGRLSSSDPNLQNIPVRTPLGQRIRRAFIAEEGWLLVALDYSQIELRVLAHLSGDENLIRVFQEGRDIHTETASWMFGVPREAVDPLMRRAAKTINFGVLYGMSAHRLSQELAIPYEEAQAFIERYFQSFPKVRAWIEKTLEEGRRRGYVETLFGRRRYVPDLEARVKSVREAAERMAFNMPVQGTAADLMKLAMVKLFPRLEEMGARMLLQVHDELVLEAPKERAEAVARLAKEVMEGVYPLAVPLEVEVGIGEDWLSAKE

Cc1oc2c(C)c3oc(=O)cc(C)c3cc2c1CO [HMT, 4'-hydroxymethyl-4,5',8-trimethylpsoralen]
inhibition of E. Coli polymerase I by covalently bound monoadducts ([1]; Piette and Hearst 1983, nick-translating a double-stranded template): not inhibited
inhibition of E. Coli polymerase I by covalently bound monoadducts ([1]; Piette and Hearst 1985, single-stranded template (bacteriophage DNA)): inhibited
Taq polymerase extension on 71-mer monoadduct template (Taq I DNA polymerase): stop Taq polymerase

monoazide ethidium chloride [reference compound]
extension, dark control (Taq polymerase; photobiotin (6 x 10^-6 M) or monoazide ethidium (1.4 x 10^-3 M), kept in the dark): inhibition of extension
inhibition of PCR by pre-irradiated compound (HIV 115-mer; irradiated on ice 15 minutes under GE sunlamp before addition to PCR, 30 cycles): does not inhibit PCR

O=c1ccc2ccc3occc3c2o1 [IP, isopsoralen]
Solubility in 1 X TE [2]: 2 µg/mL (≈ 10.7 µM)

Cc1cc2c(ccc3c(C)cc(=O)oc32)o1 [DMIP, 4,5'-Dimethylisopsoralen]
maximum aqueous solubility [3]: 8 µg/mL

C[S+](C)[O-] [DMSO, dimethyl sulfoxide]
CPM of product bands (human placental DNA; 1% DMSO): 137,000 CPM
CPM of product bands (human placental DNA; 5% DMSO): 94,000 CPM
CPM of product bands (human placental DNA; 10% DMSO): 76,000 CPM

Cc1oc2ccc3c(C)cc(=O)oc3c2c1CN(C)CCCCCCN(C)C(=O)CCCCCNC(=O)CCCC[C@@H]1SC[C@@H]2NC(=O)N[C@@H]21 [BIODMIP, 4'-N-[N,N'-dimethyl-N'-(6-{biotinamido} -hexanoate)-1,6-hexanediamine] -methyl-4,5'-dimethylisopsoralen]
ratio of 1 covalently bound BIODMIP per n base pairs [4]: 20 base pairs

COc1c2occc2cc2ccc(=O)oc12 [Compound 8-MOP, 8-methoxypsoralen]
template activity lost by modified DNA [1]: 97%

CN(CCCNC(=O)CCCC[C@@H]1SC[C@@H]2NC(=O)N[C@@H]21)CCCNc1ccc(N=[N+]=[N-])cc1[N+](=O)[O-] [photobiotin, reference compound]
extension after irradiation (Taq polymerase; photobiotin (6 x 10^-6 M), irradiated on ice for 15 minutes, GE sunlamp): inhibition only after irradiation
concentration at which pre-irradiated compound shut down PCR (HIV 115-mer; highest concentration used, 115-mer amplified at all lower concentrations): 700 µM

COc1cc(OC)c2ccc(=O)oc2c1 [DMC, 5,7-dimethoxycoumarin]
template activity lost by modified DNA [1]: 50%
